Test results reported in US11053196B2, “Substituted indoline derivatives as dengue viral replication inhibitors” (JANSSEN PHARMACEUTICALS, INC., priority 2017, dated 2021).

What was measured:
[1] = test system: DENV-3 strain H87; assay: Tetravalent RT-qPCR assay, serotype 3; type: cell-based; settings: Dengue virus, DENV3, 72 h; RT-qPCR serotype 3 H87, Vero cells, day 3
Method: (§1) The antiviral activity of the compounds of the invention was tested against DENV-1 strain TC974#666 (NCPV), DENV-2 strain 16681, DENV-3 strain H87 (NCPV) and DENV-4 strain H241 (NCPV) in a RT-qPCR assay. Therefore, Vero cells were infected with either DENV-1, or -2, or -3, or -4 in the presence or absence of test compounds. At day 3 post-infection, the cells were lysed and cell lysates were used to prepare cDNA of both a viral target (the 3′UTR of DENV; Table 2) and a cellular reference gene (1-actin, Table 2). Subsequently, a duplex real time PCR was performed on a Lightcycler480 instrument. The generated Cp value is inversely proportional to the amount of RNA expression of these targets. Inhibition of DENV replication by a test compound results in a shift of Cp's for the 3′UTR gene. On the other hand, if a test compound is toxic to the cells, a similar effect on 1-actin expression will be observed. The comparative ΔΔCp method is used to calculate EC50, which is based on the relative gene expression of the target gene (3′UTR) normalized with the cellular housekeeping gene (1-actin). In addition, CC50 values are determined based on the C, values acquired for the housekeeping gene β-actin.
(§2) The culture medium consisted of minimal essential medium supplemented with 2% of heat-inactivated fetal calf serum, 0.04% gentamycin (50 mg/mL) and 2 mM of L-glutamine. Vero cells, obtained from ECACC, were suspended in culture medium and 75 μL/well was added in 96-well plates (10000 cells/well), which already contain the antiviral compounds. […] In addition, each plate contains wells which are assigned as virus controls (containing cells and virus in the absence of compound) and cell controls (containing cells in the absence of virus and compound). Once the cells were added in the plates, the plates were incubated in a fully humidified incubator (37° C., 5% CO2) until the next day. Dengue viruses serotype-1, 2, 3 and 4 were diluted in order to obtain a Cp of ˜22-24 in the assay. Therefore, 25 μL of virus suspension was added to all the wells containing test compound and to the wells assigned as virus control. In parallel, 25 μL of culture medium was added to the cell controls. Next, the plates were incubated for 3 days in a fully humidified incubator (37° C., 5% CO2). After 3 days, the supernatant was removed from the wells and the cells were washed twice with ice-cold PBS (−100 μL). The cell pellets within the 96-well plates were stored at −80° C. for at least 1 day. Next, RNA was extracted using the Cells-to-CT™ lysis kit, according to the manufacturer's guideline (Life Technologies). The cell lysates can be stored at −80° C. or immediately used in the reverse transcription step.
(§3) In preparation of the reverse transcription step, mix A (table 3A) was prepared and 7.57 μL/well was dispensed in a 96-well plate. After addition of 5 μL of the cell lysates, a five minute denaturation step at 75° C. was performed (table 3B). Afterwards, 7.43 μL of mix B was added (table 3C) and the reverse transcription step was initiated (table 3D) to generate cDNA.
(§4) Finally, a RT-qPCR mix was prepared, mix C (table 4A), and 22.02 μL/well was dispensed in 96-well LightCycler qPCR plates to which 3 μL of cDNA was added and the qPCR was performed according to the conditions in table 4B on a LightCycler 480.
(§5) Using the LightCycler software and an in-house LIMS system, dose response curves for each compound were calculated and the half maximal effective concentration (EC50) and the half maximal cytotoxic concentration (CC50) were determined (Tables 5-8).

[2] = in vitro; type: cell-based; settings: African green monkey
Method: as §1, with “The comparative ΔΔCp method is used to calculate EC50, which is based on the relative gene expression of the target gene (3′UTR) normalized with the cellular housekeeping gene (1-actin).” left out, “β-actin. […]” for “β-actin.”
as §5

[3] = test system: DENV-4 strain H241; assay: Tetravalent RT-qPCR assay, serotype 4; type: cell-based; settings: Dengue virus, DENV4, 72 h; RT-qPCR serotype 4 H241, Vero cells, day 3
Method: as §1, §2, §3, §4, §5

[4] = test system: DENV-1 strain TC974#666; assay: Tetravalent RT-qPCR assay, serotype 1; type: cell-based; settings: Dengue virus, DENV1, 72 h; RT-qPCR serotype 1 TC974#666, Vero cells, day 3
Method: as §1, §2, §3, §4, §5

[5] = test system: Vero cells; settings: African green monkey
[6] = test system: DENV-2 16681 strain; assay: DENV-2 antiviral assay (eGFP-labeled virus in Vero cells); type: cell-based, Dengue virus; settings: DENV-2 16681 eGFP, MOI 0.5, 3 days
Method: The antiviral activity of all the compounds of the invention was tested against the DENV-2 16681 strain which was labeled with enhanced green fluorescent protein (eGPF). The culture medium consists of minimal essential medium supplemented with 2% of heat-inactivated fetal calf serum, 0.04% gentamycin (50 mg/mL) and 2 mM of L-glutamine. Vero cells, obtained from ECACC, were suspended in culture medium and 25 μL was added to 384-well plates (2500 cells/well), which already contain the antiviral compounds. Typically, these plates contain a 5-fold serial dilution of 9 dilution steps of the test compound at 200 times the final concentration in 100% DMSO (200 nL). […] Finally, each plate contains wells which are assigned as virus controls (containing cells and virus in the absence of compound), cell controls (containing cells in the absence of virus and compound) and medium controls (containing medium in the absence of cells, virus and compounds). To the wells assigned as medium control, 25 μL of culture medium was added instead of Vero cells. Once the cells are added to the plates, the plates were incubated for 30 minutes at room temperature to allow the cells to distribute evenly within the wells. Next, the plates were incubated in a fully humidified incubator (37° C., 5% CO2) until the next day. Then, DENV-2 strain 16681, labeled with eGFP, was added at a multiplicity of infection (MOI) of 0.5.
Therefore, 15 μL of virus suspension was added to all the wells containing test compound and to the wells assigned as virus control. In parallel, 15 μL of culture medium was added to the medium and cell controls. Next, the plates were incubated for 3 days in a fully humidified incubator (37° C., 5% CO2). At the day of the read out, the eGFP fluorescence was measured using an automated fluorescence microscope at 488 nm (blue laser). Using an in-house LIMS system, inhibition dose response curves for each compound were calculated and the half maximal effective concentration (EC50) was determined. Therefore, the percent inhibition (I) for every test concentration is calculated using the following formula: I=100*(ST−SCC)/(SVC−SCC); ST, SCC and SVC are the amount of eGFP signal in the test compound, cell control and virus control wells, respectively. The EC50 represents the concentration of a compound at which the virus replication is inhibited with 50%, as measured by a 50% reduction of the eGFP fluorescent intensity compared to the virus control. The EC50 is calculated using linear interpolation (Table 1).

[7] = test system: DENV-2 strain 16681; assay: Tetravalent RT-qPCR assay, serotype 2; type: cell-based; settings: Dengue virus, DENV2, 72 h; RT-qPCR serotype 2 16681, Vero cells, day 3
Method: as §1, §2, §3, §4, §5

COc1cc(NC(C(=O)N2CCc3ccc(OC(F)(F)F)cc32)c2ccc(F)cc2OC)cc(OCCCC(=O)O)c1 (single isomer, unassigned) [Compound 6B, 4-(3-((1-(4-fluoro-2-methoxyphenyl)-2-oxo-2-(6-(trifluoromethoxy)indolin-1-yl)ethyl)amino)-5-methoxyphenoxy)butanoic acid]
EC50 [1]: 5.6 nM | CC50 at 3 days [2]: 13000 nM | EC50 [3]: 29 nM | EC50 [4]: 0.64 nM | CC50 [5]: 15000 nM | EC50 [6]: 0.39 nM | EC50 [7]: 0.41 nM
